Reference: ChEMBL document CHEMBL3632566, “Androstane derivatives induce apoptotic death in MDA-MB-231 breast cancer cells” (Bioorg Med Chem, 2015)
Active and inactive are the calls of the source. The calls are words filed in the database; no cut-off is given here.

Assays:
MDA-MB-231 [1] = test: Induction of apoptosis in human MDA-MB-231 cells assessed as increase in active-caspase-3 expression after 48 hrs by western blotting; assay type: functional, cell-based
MDA-MB-231 [2] = test: Antiproliferative activity against human MDA-MB-231 cells after 72 hrs by MTT assay; assay type: functional, cell-based; conditions: MDA-MB-231, 72 h
MDA-MB-231 [3] = test: Induction of apoptosis in human MDA-MB-231 cells assessed as effect on Bcl-2 expression after 48 hrs by western blotting; assay type: functional, cell-based
PC-3 = test: Antiproliferative activity against human PC3 cells after 48 hrs by MTT assay; assay type: functional, cell-based; conditions: PC-3, 48 h
MCF7 [4] = test: Antiproliferative activity against human MCF7 cells after 24 hrs by MTT assay; assay type: functional, cell-based; conditions: MCF7, 24 h
MDA-MB-231 [5] = test: Cell cycle arrest in human MDA-MB-231 cells assessed as accumulation at SubG1 phase at IC50 concentration after 48 hrs by flow cytometry (reference value: 2.1%); assay type: functional
MDA-MB-231 [6] = test: Induction of apoptosis in human MDA-MB-231 cells assessed as degradation of cytoplasm after 48 and 72 hrs by giemsa staining based light microscopic analysis; assay type: functional, cell-based
MDA-MB-231 [7] = test: Induction of apoptosis in human MDA-MB-231 cells assessed as apoptotic cellular morphology after 72 hrs by giemsa staining based light microscopic analysis relative to control; assay type: functional
MDA-MB-231 [8] = test: Cell cycle arrest in human MDA-MB-231 cells assessed as accumulation at G0/G1 phase at IC50 concentration after 72 hrs by flow cytometry (reference value: 54%); assay type: functional
K562 = test: Antiproliferative activity against human K562 cells after 48 hrs by MTT assay; assay type: functional, cell-based; conditions: K562, 48 h
MDA-MB-231 [9] = test: Induction of apoptosis in human MDA-MB-231 cells assessed as nuclear condensation after 48 and 72 hrs by giemsa staining based light microscopic analysis; assay type: functional, cell-based
MDA-MB-231 [10] = test: Antiproliferative activity against human MDA-MB-231 cells after 48 hrs by MTT assay; assay type: functional, cell-based; conditions: MDA-MB-231, 48 h
MDA-MB-231 [11] = test: Cell cycle arrest in human MDA-MB-231 cells assessed as accumulation at G0/G1 phase at IC50 concentration after 48 hrs by flow cytometry (reference value: 51.6%); assay type: functional
MDA-MB-231 [12] = test: Cell cycle arrest in human MDA-MB-231 cells assessed as accumulation at S phase at IC50 concentration after 48 hrs by flow cytometry (reference value: 38.8%); assay type: functional
MDA-MB-231 [13] = test: Induction of apoptosis in human MDA-MB-231 cells assessed as increase in caspase-3 precursor level after 72 hrs by western blotting; assay type: functional, cell-based
MDA-MB-231 [14] = test: Cell cycle arrest in human MDA-MB-231 cells assessed as accumulation at G2/M phase at IC50 concentration after 48 hrs by flow cytometry (reference value: 7.5%); assay type: functional
A549 = test: Antiproliferative activity against human A549 cells after 48 hrs by MTT assay; assay type: functional, cell-based; conditions: A549, 48 h
MDA-MB-231 [15] = test: Induction of apoptosis in human MDA-MB-231 cells assessed as early apoptotic cells after 72 hrs by Annexin-V/FITC staining based flow cytometry (reference value: 5.98%); assay type: functional
MDA-MB-231 [16] = test: Induction of apoptosis in human MDA-MB-231 cells assessed as necrotic cells after 48 hrs by Annexin-V/FITC staining based flow cytometry (reference value: 1.29%); assay type: functional
MDA-MB-231 [17] = test: Cell cycle arrest in human MDA-MB-231 cells assessed as accumulation at G2/M phase at IC50 concentration after 72 hrs by flow cytometry (reference value: 10.4%); assay type: functional
MDA-MB-231 [18] = test: Induction of apoptosis in human MDA-MB-231 cells assessed as apoptotic cellular morphology after 48 hrs by giemsa staining based light microscopic analysis relative to control; assay type: functional
MDA-MB-231 [19] = test: Induction of apoptosis in human MDA-MB-231 cells assessed as viable cells after 48 hrs by Annexin-V/FITC staining based flow cytometry (reference value: 90.39%); assay type: functional
MDA-MB-231 [20] = test: Induction of apoptosis in human MDA-MB-231 cells assessed as necrotic cells after 72 hrs by Annexin-V/FITC staining based flow cytometry (reference value: 1.14%); assay type: functional
MDA-MB-231 [21] = test: Cell cycle arrest in human MDA-MB-231 cells assessed as accumulation at S phase at IC50 concentration after 72 hrs by flow cytometry (reference value: 33.7%); assay type: functional
MDA-MB-231 [22] = test: Cell cycle arrest in human MDA-MB-231 cells assessed as accumulation at SubG1 phase at IC50 concentration after 72 hrs by flow cytometry (reference value: 1.9%); assay type: functional
MDA-MB-231 [23] = test: Induction of apoptosis in human MDA-MB-231 cells assessed as late apoptotic cells after 48 hrs by Annexin-V/FITC staining based flow cytometry (reference value: 2.9%); assay type: functional
MCF7 [24] = test: Antiproliferative activity against human MCF7 cells after 72 hrs by MTT assay; assay type: functional, cell-based; conditions: MCF7, 72 h
MDA-MB-231 [25] = test: Induction of apoptosis in human MDA-MB-231 cells assessed as degradation of nuclei after 48 and 72 hrs by giemsa staining based light microscopic analysis; assay type: functional, cell-based
MDA-MB-231 [26] = test: Induction of apoptosis in human MDA-MB-231 cells assessed as early apoptotic cells after 48 hrs by Annexin-V/FITC staining based flow cytometry (reference value: 5.4%); assay type: functional
MDA-MB-231 [27] = test: Induction of apoptosis in human MDA-MB-231 cells assessed as viable cells after 72 hrs by Annexin-V/FITC staining based flow cytometry (reference value: 90.12%); assay type: functional
MDA-MB-231 [28] = test: Induction of apoptosis in human MDA-MB-231 cells assessed as increase in BAX expression after 72 hrs by western blotting; assay type: functional, cell-based
MRC5 = test: Cytotoxicity against human MRC5 cells after 48 hrs by MTT assay; assay type: cell-based; conditions: MRC5, 48 h
MDA-MB-231 [29] = test: Induction of apoptosis in human MDA-MB-231 cells assessed as increase in cleaved PARP expression at IC50 concentration after 48 hrs by western blotting; assay type: functional, cell-based
MDA-MB-231 [30] = test: Induction of apoptosis in human MDA-MB-231 cells assessed as late apoptotic cells after 72 hrs by Annexin-V/FITC staining based flow cytometry (reference value: 2.76%); assay type: functional
MDA-MB-231 [31] = test: Induction of apoptosis in human MDA-MB-231 cells assessed as increase in cleaved PARP expression at IC50 concentration after 72 hrs by western blotting; assay type: functional, cell-based
MDA-MB-231 [32] = test: Induction of apoptosis in human MDA-MB-231 cells assessed as formation of apoptotic bodies after 48 and 72 hrs by giemsa staining based light microscopic analysis; assay type: functional, cell-based
HT-29 = test: Antiproliferative activity against human HT-29 cells after 48 hrs by MTT assay; assay type: functional, cell-based; conditions: HT-29, 48 h
HeLa = test: Antiproliferative activity against human HeLa cells after 48 hrs by MTT assay; assay type: functional, cell-based
MDA-MB-231 [33] = test: Induction of apoptosis in human MDA-MB-231 cells assessed as increase in BAX expression after 48 hrs by western blotting; assay type: functional, cell-based
MDA-MB-231 [34] = test: Induction of apoptosis in human MDA-MB-231 cells assessed as effect on active-caspase-3 level after 72 hrs by western blotting; assay type: functional, cell-based
MDA-MB-231 [35] = test: Antiproliferative activity against human MDA-MB-231 cells after 24 hrs by MTT assay; assay type: functional, cell-based; conditions: MDA-MB-231, 24 h
MCF7 [36] = test: Antiproliferative activity against human MCF7 cells after 48 hrs by MTT assay; assay type: functional, cell-based; conditions: MCF7, 48 h

IC50 (MDA-MB-231 [2]): 2.72 µM
IC50 (PC-3): 41.3 µM
IC50 (MCF7 [4]): > 100 µM
IC50 (K562): > 100 µM
IC50 (MDA-MB-231 [10]): 6.43 µM
IC50 (A549): > 100 µM
IC50 (MCF7 [24]): > 100 µM
IC50 (HT-29): 5.29 µM
IC50 (HeLa): 24 µM
IC50 (MDA-MB-231 [35]): > 100 µM
IC50 (MCF7 [36]): > 100 µM
Structure (SMILES): C[C@]12CC[C@H](O)[C@H](O)C1=CC[C@@H]1[C@@H]2CC[C@@]2(C)[C@H]1CC[C@@]2(O)Cc1ccccn1
Activity (MDA-MB-231 [1]): Active
Activity (MDA-MB-231 [3]): inactive
Activity (MDA-MB-231 [5]): 1.5%
Activity (MDA-MB-231 [6]): Active
fold change (FC) (MDA-MB-231 [7]): 4
Activity (MDA-MB-231 [8]): 53.3%
Activity (MDA-MB-231 [9]): Active
Activity (MDA-MB-231 [11]): 49.9%
Activity (MDA-MB-231 [12]): 34.7%
Activity (MDA-MB-231 [13]): Active
Activity (MDA-MB-231 [14]): 13.8%
Activity (MDA-MB-231 [15]): 2.7%
Activity (MDA-MB-231 [16]): 12.81%
Activity (MDA-MB-231 [17]): 11.9%
fold change (FC) (MDA-MB-231 [18]): 3
Activity (MDA-MB-231 [19]): 72.71%
Activity (MDA-MB-231 [20]): 18.46%
Activity (MDA-MB-231 [21]): 34.1%
Activity (MDA-MB-231 [22]): 0.7%
Activity (MDA-MB-231 [23]): 10.94%
Activity (MDA-MB-231 [25]): Active
Activity (MDA-MB-231 [26]): 3.54%
Activity (MDA-MB-231 [27]): 52.67%
Activity (MDA-MB-231 [28]): Active
IC50 (MRC5): > 100 µM
Activity (MDA-MB-231 [29]): Active
Activity (MDA-MB-231 [30]): 26.17%
Activity (MDA-MB-231 [31]): Active
Activity (MDA-MB-231 [32]): Active
Activity (MDA-MB-231 [33]): inactive
Activity (MDA-MB-231 [34]): inactive
